Source: EP0416746A2 (priority 1989, dated 1991)
Like-named read-outs stand apart in the source and are kept apart here.

Legend:
Venturia inaequalis = conditions: in vivo
Phytophthora infestans = format: in vivo; conditions: active = greater than 50% control of the disease at 125 ppm (w/v) or less; spray or stem base drench; late tomato blight
Plasmopara viticola = format: in vivo
Pellicularia sasakii = format: in vivo
Erysiphe graminis = format: in vivo; conditions: active = greater than 50% control of the disease at 125 ppm (w/v) or less; spray or stem base drench; barley powdery mildew
Pyricularia oryzae = format: in vivo; conditions: active = greater than 50% control of the disease at 125 ppm (w/v) or less; spray or stem base drench; rice blast
Botrytis cinerea = format: in vivo; conditions: active = greater than 50% control of the disease at 125 ppm (w/v) or less; spray or stem base drench; grey mould of tomato

Row | SMILES | VI (Venturia inaequalis) | PI (Phytophthora infestans) | PV (Plasmopara viticola; in vivo) | PS (Pellicularia sasakii; active = greater than 50% control of the disease at 125 ppm (w/v) or less, spray or stem base drench, rice sheath blight) | EG (Erysiphe graminis) | PO (Pyricularia oryzae) | BC (Botrytis cinerea) | PV (Plasmopara viticola; active = greater than 50% control of the disease at 125 ppm (w/v) or less, spray or stem base drench, vine downy mildew) | PS (Pellicularia sasakii; in vivo)
1 | CO/C=C(/C(=O)OC)c1ccccc1CSC(=O)c1ccccc1 [Compound 1, methyl (E)-2-[2-(benzoylthiomethyl)phenyl]-3-methoxy-2-propenoate] | + (key: + = active) | + (+ = active) | + (key: + = active) | – | – | – | – | – | –
2 | CO/C=C(/C(=O)OC)c1ccccc1CSC(=O)C(C)(C)C [Compound 2] | – | + (+ = active) | – | + (+ = active) | + (+ = active) | + (+ = active) | + (+ = active) | + (+ = active) | –
3 | CO/C=C(/C(=O)OC)c1ccccc1CSC(C)=O [Compound 3, methyl (E)-2-[2-(acetylthiomethyl)phenyl]-3-methoxy-2-propenoate] | + (key: + = active) | – | – | – | – | – | – | – | + (key: + = active)
4 | CO/N=C(/C(=O)OC)c1ccccc1CSC(=O)c1ccccc1 [Compound 12, methyl (E)-2-[2-(benzoylthiomethyl)phenyl]-(methoxyimino)acetate] | + (key: + = active) | – | + (key: + = active) | – | – | – | – | – | –
